Results as given in patent US20250228824A1, “COMPOSITIONS AND METHODS FOR INHIBITION OF ITO AS TREATMENT FOR THE J WAVE SYNDROMES AND HYPOTHERMIA” (Lankenau Institute for Medical Research, priority 2021, published 2025).

Experiments:
[1] = tested on: coronary-perfused canine right (RV) and left (LV) ventricular wedge models of JWS; experiment: Coronary-perfused ventricular wedge models of the J wave syndromes (NS5806 alone or with verapamil); design: QT interval / T wave amplitude / Epi (APD50) / Epi (APD90): unit not given here
Protocol: Ten hearts from purpose-bred adult male mongrel dogs (20-22 kg) were acquired from Covance (Denver, PA) and another 10 hearts from purpose-bred adult male Beagle dogs (10-16 kg) were obtained from Envigo (Denver, PA). Dogs were sedated with ketamine (10 mg/kg, IM) and xylazine 2 (mg/kg, IM). Prior to euthanasia (Euthasol solution: pentobarbital sodium and phenytoin sodium; 0.22 ml/kg, IV), and heparin (human pharmaceutical grade, 1,000 U/kg, IV) were administered 3-4 min before isolation of the hearts via a left thoracotomy. Retrograde aortic perfusion of the hearts with ice-cold cardioplegic solution (modified K-H solution; 16 mM KCl) was immediately performed to rinse the coronary vasculature of blood. The hearts were then placed in a sealed container containing ice-cold cardioplegic solution and transported to our institution via private courier in an insulated package filled with icepacks.
Transmural wedges were dissected from the base of the RV and LV. During the cannulation procedure, preparations were initially arterially perfused with cardioplegic solution. Next, the wedge preparations were placed in a tissue bath and perfused with a modified Krebs-Henseleit solution (K—H) bubbled with 95% O2/5% CO2 warmed to 37° C. The composition of K—H was (in mM): 118 NaCl, 4 KCl, 2 CaCl2, 1.2 MgSO4, 24 NaHCO3, 1.2 NaH2PO4, 2 Na Pyruvate and 10 D-Glucose. The perfusate was delivered at a constant pressure (45-50 mmHg). A transmural pseudo-ECG (ECG) was recorded using two Ag/AgCl half cells placed at ˜1 cm from the Epi (+) and Endo (−) surfaces along the same axis as the transmembrane action potential (AP) recordings. APs were simultaneously recorded from the immediate sub-Epi and M cell region (˜2-3 mm from the Endo surface) using floating glass microelectrodes. Pacing was applied to the Endo surface using bipolar silver electrodes insulated except at the tips (Basic Cycle Lengths [BCLs]: 500-2,000 ms). A detailed description of the arterially-perfused ventricular wedge preparation has been previously published.^5 ECG and AP signals were digitized and analyzed using Spike 2 for Windows (Cambridge Electronic Design, Cambridge, UK).
We used the Ito-agonist NS5806 (5-10 μM) alone or with the calcium-channel blocker verapamil (2.5 μM) to pharmacologically mimic the effects of the ion channel genetic defects underlying ERS and BrS. These provocative agents were added to the coronary perfusate in increasing concentrations until the characteristic ECG phenotypes were unmasked, including phase 2 reentry (P2R), closely coupled premature beats (CCPBs) and/or pVT/VF. AR-787 was added to the perfusate to test its ability to suppress or prevent arrhythmogenesis.

[2] = high doses / high plasma levels; cited from earlier work
[3] = NS5806 5-10 μM, 3 LV wedges, BCL 800 msec

Compound	QT interval ([1]; AR-787 1, 10 or 50 μM, NS5806 5-10 μM, five wedges)	effect on phase 1 magnitude, AP notch and J wave ([1]; NS5806 5-10 μM in coronary perfusate)	Epi (APD50) [1, 3]	Epi (APD90) [1, 3]	J wave amplitude [1, 3]	M (APD50) [1, 3]	M (APD90) [1, 3]	Ph1 mag (% Ph0) [1, 3]	QT interval [1, 3]	T wave amplitude [1, 3]	patients developing serious GI side effects [2]
O=C(Nc1cc(C(F)(F)F)cc(C(F)(F)F)c1)Nc1c(Br)cc(Br)cc1-c1nn[nH]n1 [NS5806, reference compound]	unaffected	increased the magnitude of phase 1	181.8 ± 10.4	215.6 ± 5.3	31.3 ± 4.6	179.5 ± 5.9	228.4 ± 7.7	40.2 ± 6.5 % Ph0	261.2 ± 4.5	17.8 ± 9.6	
C=C[C@H]1C[N@@]2CC[C@H]1C[C@@H]2[C@@H](O)c1ccnc2ccc(OC)cc12 [quinidine]											approximately 50%
